One block for each molecule: values may come before it.
Assays:
[1] = target: T1, OATP1B1 (Homo sapiens, UniProt Q9Y6L6); assay: Screening for inhibition of OATP1B1-mediated estradiol-17β-glucuronide uptake; details: for Classification as OATP1B1 inhibitor (more than 50% inhibition of E17βG uptake): 20 μM test compound
T1 sequence (Q9Y6L6 1-691): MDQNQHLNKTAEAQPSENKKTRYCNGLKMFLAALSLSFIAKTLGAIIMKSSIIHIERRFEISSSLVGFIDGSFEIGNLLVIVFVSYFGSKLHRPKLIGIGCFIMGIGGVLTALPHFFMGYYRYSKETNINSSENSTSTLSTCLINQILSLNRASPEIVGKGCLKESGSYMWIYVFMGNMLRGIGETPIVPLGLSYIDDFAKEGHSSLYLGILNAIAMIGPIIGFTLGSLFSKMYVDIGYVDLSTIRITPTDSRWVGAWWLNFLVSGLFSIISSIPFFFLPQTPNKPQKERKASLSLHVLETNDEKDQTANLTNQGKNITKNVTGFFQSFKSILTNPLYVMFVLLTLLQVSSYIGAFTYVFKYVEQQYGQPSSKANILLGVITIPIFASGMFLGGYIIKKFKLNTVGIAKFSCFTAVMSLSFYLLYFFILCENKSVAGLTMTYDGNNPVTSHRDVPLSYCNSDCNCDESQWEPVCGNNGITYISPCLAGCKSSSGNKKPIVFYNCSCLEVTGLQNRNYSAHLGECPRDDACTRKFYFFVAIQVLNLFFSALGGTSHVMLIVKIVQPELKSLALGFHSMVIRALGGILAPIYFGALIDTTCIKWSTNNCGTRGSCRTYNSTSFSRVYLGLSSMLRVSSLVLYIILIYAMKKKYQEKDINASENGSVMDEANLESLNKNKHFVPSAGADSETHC

[2] = target: T1, OATP1B1; assay: Concentration-dependent inhibition of OATP1B1-mediated atorvastatin uptake; type: cell-based
[3] = target: T1, OATP1B1; assay: Calculation of R-values
[4] = clinical co-administration with the inhibitor; ref [37],[27],[43],[51],[46]; cited from earlier work
[5] = cited from earlier work; for Fa, fraction of the inhibitor dose absorbed (maximum oral bioavailability): ref [23]–[25]
[6] = ref [3],[23],[24]; cited from earlier work
[7] = target: T1, OATP1B1; assay: Michaelis-Menten uptake kinetics in HEK293 cells stably expressing OATP1B1; type: cell-based

Classification as OATP1B1 inhibitor (more than 50% inhibition of E17βG uptake) [1]: inhibitors
Molecule: C[C@H](CCC(=O)NCCS(=O)(=O)O)[C@H]1CC[C@H]2[C@@H]3[C@H](O)C[C@@H]4C[C@H](O)CC[C@]4(C)[C@H]3CC[C@]12C [Taurochenodeoxycholate]

Classification as OATP1B1 inhibitor (more than 50% inhibition of E17βG uptake) [1]: inhibitors
Molecule: COC(=O)[C@H]1[C@H]2C[C@@H]3c4[nH]c5cc(OC)ccc5c4CCN3C[C@H]2C[C@@H](OC(=O)c2cc(OC)c(OC)c(OC)c2)[C@@H]1OC [Reserpine]

Classification as OATP1B1 inhibitor (more than 50% inhibition of E17βG uptake) [1]: inhibitors
Molecule: Ivermectin

Classification as OATP1B1 inhibitor (more than 50% inhibition of E17βG uptake) [1]: inhibitors
Molecule: CC/C(=C(/CC)c1ccc(O)cc1)c1ccc(O)cc1 [Diethylstilbestrol]

Classification as OATP1B1 inhibitor (more than 50% inhibition of E17βG uptake) [1]: inhibitors
Molecule: Nc1ncnc2c1ncn2CCOCP(=O)(O)O [Adefovir]

Classification as OATP1B1 inhibitor (more than 50% inhibition of E17βG uptake) [1]: inhibitors
Molecule: C[C@H](CCC(=O)NCCS(=O)(=O)O)[C@H]1CC[C@H]2[C@@H]3CC[C@@H]4C[C@H](O)CC[C@]4(C)[C@H]3C[C@H](O)[C@]12C [Taurodeoxycholate]

Classification as OATP1B1 inhibitor (more than 50% inhibition of E17βG uptake) [1]: inhibitors
Molecule: C[C@H](CCC(=O)NCC(=O)O)[C@H]1CC[C@H]2[C@@H]3[C@H](O)C[C@@H]4C[C@H](O)CC[C@]4(C)[C@H]3CC[C@]12C [Glycochenodeoxycholate]

Classification as OATP1B1 inhibitor (more than 50% inhibition of E17βG uptake) [1]: inhibitors
Molecule: CC(=O)S[C@@H]1CC2=CC(=O)CC[C@]2(C)[C@H]2CC[C@@]3(C)[C@@H](CC[C@@]34CCC(=O)O4)[C@H]12 [Spironolactone]

Classification as OATP1B1 inhibitor (more than 50% inhibition of E17βG uptake) [1]: classified as OATP1B1 inhibitors
Molecule: CCOc1cc(CC(=O)N[C@@H](CC(C)C)c2ccccc2N2CCCCC2)ccc1C(=O)O [Repaglinide]

Classification as OATP1B1 inhibitor (more than 50% inhibition of E17βG uptake) [1]: inhibitors
Molecule: COC(=O)C1=C(C)NC(C)=C(C(=O)OCCN(C)Cc2ccccc2)C1c1cccc([N+](=O)[O-])c1 (centres unmarked) [Nicardipine]

IC50 [2]: 156 µM
Ki [2]: 68.1 µM
R-value B ([3]; Eq. 2 (IC50), ka = 0.03, Fa = 1, International Transporter Consortium method): 1.05
R-value D ([3]; Eq. 2 (IC50), ka = 0.1, Fa = 1): 1.08
R-value C ([3]; Eq. 2 (IC50), ka = 0.1, Fa published value (lopinavir Fa = 1)): 1.08
R-value F ([3]; Eq. 3 (Ki), ka = 0.03, Fa = 1): 1.11
R-value E ([3]; Eq. 3 (Ki), ka = 0.03, Fa published value (lopinavir Fa = 1)): 1.11
R-value H ([3]; Eq. 3 (Ki), ka = 0.1, Fa = 1, Hirano et al. method): 1.19
R-value G ([3]; Eq. 3 (Ki), ka = 0.1, Fa published value (lopinavir Fa = 1)): 1.19
Range of the eight R-values A–H ([3]; all eight calculation variants): 1.05–1.19
Average (mean) R-value ([3]; mean of the eight R-values A–H): 1.11
Molecule: Cc1ccc(C)c(OCCCC(C)(C)C(=O)O)c1 [Gemfibrozil]
Fold AUC change Atorvastatin [4]: 1.2 fold
Imax, maximum systemic plasma concentration of the inhibitor ([5]; amprenavir recalculated from fosamprenavir data, ref [23]–[28]): 99.9 µM
Fa, fraction of the inhibitor dose absorbed (maximum oral bioavailability) [5]: 0.98
Fu, fraction of the inhibitor that is unbound [6]: 0.05

Classification as OATP1B1 inhibitor (more than 50% inhibition of E17βG uptake) [1]: not identified as inhibitors
inhibition at 5 min, 75 µM ([1]; human, pH 7.4, Inhibition of E17βG uptake, 75 μM test compound (data not shown)): > 50%
inhibition at 5 min, 100 µM ([1]; human, pH 7.4, Inhibition of E17βG uptake, 100 μM test compound (data not shown)): > 50%
Molecule: N[C@@H](Cc1cc(I)c(Oc2cc(I)c(O)c(I)c2)c(I)c1)C(=O)O [Levothyroxin]

Inhibition of atorvastatin uptake (in words) ([2]; investigated concentration interval 0.1–100 μM, 1 μM atorvastatin): did not inhibit atorvastatin uptake
Molecule: CC(C)OC(=O)C(C)(C)Oc1ccc(C(=O)c2ccc(Cl)cc2)cc1 [Fenofibrate]
Fa, fraction of the inhibitor dose absorbed (maximum oral bioavailability) [5]: 0.81

Vmax of OATP1B1-mediated uptake ([7]; E17βG 1–200 μM, 96-well plates, HEK293-OATP1B1): 1.37 (± 0.12) pmol/min/mg protein
Uptake in OATP1B1 cells relative to mock-transfected cells ([7]; at 5 min (E17βG) and 2 min (atorvastatin)): at least 8 times
Molecule: C[C@]12CC[C@@H]3c4ccc(O)cc4CC[C@H]3[C@@H]1CC[C@@H]2O[C@@H]1O[C@H](C(=O)O)[C@@H](O)[C@H](O)[C@H]1O [Estradiol-17-β-glucuronide]
